From US20260098017A1, “NOVEL AROMATIC RING DERIVATIVE CONTAINING AMIDE SUBSTITUTION AND USE THEREOF” (TIANJIN PHARMACEUTICAL BIOTECHNOLOGY CO., LTD., priority 2022, published 2026)

Target: JAK1 JH2 pseudokinase (Homo sapiens, UniProt P23458)
Experiment: JAK1 JH2 enzyme binding assay in vitro (TR-FRET)
Conditions: read-out: JAK 1 JH2 IC50
Protocol: Instrumentation: Envision microplate reader (PerkinElmer), Echo (LABCYTE)
Method: in this experiment, the inhibitory effects of compounds on JAK1 JH2 pseudokinase was tested using time-resolved fluorescence resonance energy transfer (TR-FRET) method.
Procedure: compounds were prepared into 10 mM stock solutions using DMSO, which were further diluted into compound dilutions with different concentration gradients in DMSO, and the compound dilutions with 200× final concentration were transferred to a 384-well assay plate using an Echo instrument. The preparation of the following 1× assay working solution: HEPES pH7.5 at a final concentration of 20 mM, MgCl2 at a final concentration of 10 mM, Brij-35 at a final concentration of 0.015%, DTT at a final concentration of 2 mM, BSA at a final concentration of 50 ug/mL. JAK1 JH2 pseudokinase with 3× final concentration, Tb antibody and Tracer were prepared using their respective 1× working solution. 5 uL of JAK1 JH2 pseudokinase was added to a 384-well assay plate, and centrifuged at 1000 rpm for 30 s. 5 uL of Tb antibody was added to the 384-well assay plate, and centrifuged at 1000 rpm for 30 s. 5 uL of Tracer was added to the 384-well assay plate, and centrifuged at 1000 rpm for 30 s. Incubation was performed at room temperature for 60 min, and then at 4° C. overnight. Finally, the 495 nm/520 nm fluorescence signal ratio was measured using the Envision microplate reader (PerkinElmer).
Data Analysis: XLfit, a software developed by IDBS and integrated into the Microsoft Excel environment, was used to process and analyze the test data. […] Thereafter, the concentration and corresponding inhibition rate data were imported into the XLfit software, and the Dose Response One Site 205 model within the software was employed to fit the inhibition rate-concentration curve by four-parameter method, and the IC50 value of the compound was calculated.

JAK1 JH2 pseudokinase, sequence (P23458 583-855 limits assumed): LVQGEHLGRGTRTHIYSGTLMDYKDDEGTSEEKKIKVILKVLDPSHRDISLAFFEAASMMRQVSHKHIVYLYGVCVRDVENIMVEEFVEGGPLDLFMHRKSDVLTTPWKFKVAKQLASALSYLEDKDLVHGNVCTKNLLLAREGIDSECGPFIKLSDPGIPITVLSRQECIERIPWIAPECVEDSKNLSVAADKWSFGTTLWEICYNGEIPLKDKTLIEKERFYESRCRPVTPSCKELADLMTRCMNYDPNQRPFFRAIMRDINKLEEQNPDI

Compound: [2H]C([2H])([2H])NC(=O)c1nnc(NC(=O)C2CC2)cc1Nc1cccc(C(=O)Nc2cccc(C)c2)c1OC [Example 3]
- IC50: 9.74 nM
